From patent US20180163180A1, “METHOD OF ENHANCING SOMATIC CELL REPROGRAMMING WITH THE ACETYLLYSINE READER BRD3R” (THE UAB RESEARCH FOUNDATION, INC ., priority 2015, published 2018)

Key:
BJ cells = experiment: Reprogramming of human fibroblasts scored by TRA-1-60+ colonies/clusters; format: cell-based
Protocol: Briefly (FIG. 1A), 2×10^4 of BJ cells were seeded in each well of a 24-well plates. The second day, fibroblasts were transduced with OCT4 (10 MOI), SOX2 (5 MOI), KLF4 (5 MOI) along with 250 μl of individual kinase viral supernatant freshly packaged in one well of a 6-well plate. Twenty-two cDNAs were evaluated in one 24-well plate. One well is OSK control, and one well of cells is transduced with OSK plus 250 μl of GFP viral supernatant as a second control. Virus was removed next day with fresh fibroblast medium. Forty-eight hours after transduction, fibroblasts were transferred from one well into a 60-mm dish for continued reprogramming. The next day of re-seeding, fibroblast medium was replaced with E7 medium (E8 minus TGF beta) plus 100 μM of sodium butyrate. From day 18 of reprogramming on, E8 media was used. On day 25 of reprogramming, reprogramming dishes were stained for ALP or TRA-1-60 markers.
• Concentration of virus: The reprogramming viruses (OCT4, SOX2, KLF4, MYC and BET members) were concentrated before use except for library viruses. The lentiviral supernatant was centrifuged at 3,000×g for 10 mins at 4° C. to remove the cell debris. Thirty ml of the viral supernatant was then transferred into each 50-ml tube. 7 ml of 50% PEG-6000 stock solution (final concentration of 8.5%) and 4.1 ml of 4 M NaCl stock solution was added to each tube (final concentration of 0.4 M). The virus mixture was stored at 4° C. for 3-5 h.
• Cell culture and reprogramming: Human fibroblast cells (BJ ATCC CRL-2522®) were cultured in fibroblast medium: DMEM, 10% heat-inactivated FBS, 0.1 mM 2-mercaptoethanol, 100 U/ml penicillin, 100 μg/ml streptomycin, 0.1 mM MEM NEAA and 4 ng/ml human bFGF. For reprogramming, seed BJ cells into 24-well plate at 2×10^4 cells/well. Twenty-four hours after plating, pre-mix the OSK (OCT4, 10 MOI; SOX2, 5 MOI and KLF4, 5 MOI) viruses (shown in FIGS. 6B-6D, SEQ ID NO: 58-60, respectively), and add the OSK virus along with 250 μl supernatant of individual kinase virus into respective wells. Incubate overnight. Next morning, remove viruses by replacing virus-containing medium with fresh fibroblast medium. Twenty-four hours after transduction, the cells were re-seeded from one well into one matrigel-coated 60-mm dish. Next day, replace fibroblast medium with reprogramming media (E7 plus sodium butyrate at 100 μM). On 18 day, start to use E8 media. On day 25 of reprogramming, stain the reprogramming cells for alkaline phosphatase or TRA-1-60.

reprogramming cells = experiment: Mitotic shake-off of reprogramming cells; format: cell-based, human; details: day-4 reprogramming cells
Protocol: • Mitotic shake-off: Reprogramming cells were prepared in T75 flasks. On day 4 of reprogramming, 1 h before mitotic shake-off, replace spent media with fresh reprogramming media. Shake the flasks at 200 rpm for 1 min and collect the media containing the shake-off mitotic cells. Add new warmed media and incubate for 10 min. Repeat these shake-off collection 2 more times. Pool the cells and centrifuge at 1,000×g for 5 min. Count the cells collected.

BRD3R: BRD3 with Reprogramming activity; 556 aa isoform of human BRD3 (AAH32124, SEQ ID NO: 47), encoded by cDNA L61
appearance of abundant TRA-1-60+ clusters (BJ cells; combined with 3F (OCT4, SOX2, KLF4), controls infrequent before day 10): 6 days | reprogramming activity (TRA-1-60+ colonies) (BJ cells; used with 3F in BJ cells, compared to OSK-GFP control): more TRA-1-60^+ colonies | mitotic cells collected compared to controls (reprogramming cells): 2.43 ×
